Results reported in US20250170218A1, “STABLE PHARMACEUTICAL COMPOSITION OF RECEPTOR AGONIST, AND PREPARATION METHOD AND APPLICATION THEREOF” (JIANGSU HANSOH PHARMACEUTICAL GROUP CO., LTD., priority 2022, published 2025).
Where two headings read alike, the source gives them in different places. Numbered stars: 1 amine (or outer) side, 2 acyl side, 3 side chain; on linkers, the order of the positions; unused ones are H or OH. Square brackets hold non-standard residues; d marks the D form. Side chains are listed from the residue outwards. Peptide text beside a SMILES is read from it. * marks the point of attachment. ξ: configuration not given here. C20 diacid = O=C(O)CCCCCCCCCCCCCCCCCCC(=O)*; γGlu = O=C(O)[C@H](CCC(=O)[*:2])N[*:1]; AEEA = NCCOCCOCC(=O)O; Aib = CC(C)(N)C(=O)O; ξP = O=C(O)C1CCCN1

What was measured:
[1] = Pharmacokinetic study in cynomolgus monkeys after single subcutaneous or intravenous injection; assay type: in vivo
Description: The administration doses for 4 groups, i.e., intravenous injection group, low-dose subcutaneous injection group, medium-dose subcutaneous group and high-dose subcutaneous injection group, were 0.1, 0.03, 0.1, and 0.3 mg/kg, respectively, all by single administration.

[2] = acids, alkalis, oxidation or high temperature
[3] = Influencing factor test of the bulk drug; assay type: physicochemical; settings: high temperature or illumination

Structure (SMILES): CC[C@H](C)[C@H](NC(=O)[C@H](CCCCN)NC(=O)[C@H](CCC(=O)O)NC(=O)[C@H](CC(C)C)NC(=O)[C@H](Cc1ccc(O)cc1)NC(=O)[C@@H](NC(=O)[C@H](CO)NC(=O)[C@H](Cc1ccc(O)cc1)NC(=O)[C@H](CC(=O)O)NC(=O)[C@H](CO)NC(=O)[C@@H](NC(=O)[C@H](Cc1ccccc1)NC(=O)[C@@H](NC(=O)CNC(=O)[C@H](CCC(=O)O)NC(=O)C(C)(C)NC(=O)[C@@H](N)Cc1ccc(O)cc1)[C@@H](C)O)[C@@H](C)O)[C@@H](C)CC)C(=O)N[C@@H](C)C(=O)N[C@@H](C)C(=O)N[C@@H](CCC(N)=O)C(=O)N[C@@H](CCC(=O)O)C(=O)N[C@@H](Cc1ccccc1)C(=O)N[C@H](C(=O)N[C@@H](CC(N)=O)C(=O)N[C@@H](Cc1c[nH]c2ccccc12)C(=O)N[C@@H](CC(C)C)C(=O)N[C@@H](CC(C)C)C(=O)N[C@@H](C)C(=O)NCC(=O)NCC(=O)N1CCCC1C(=O)N[C@@H](CO)C(=O)N[C@@H](CO)C(=O)NCC(=O)N[C@@H](C)C(=O)N1CCC[C@H]1C(=O)N1CCCC1C(=O)N1CCC[C@H]1C(=O)N[C@@H](CO)C(=O)N[C@@H](CCCCNC(=O)COCCOCCNC(=O)COCCOCCNC(=O)CC[C@H](NC(=O)CCCCCCCCCCCCCCCCCCC(=O)O)C(=O)O)C(N)=O)C(C)C (some centres unmarked) [Active ingredient] (H-Y[Aib]EGTFTSDYSIYLEKIAAQEFVNWLLAGG[ξP]SSGAP[ξP]PSK([AEEA-AEEA-γGlu-C20 diacid])-NH2)
- exposure (AUClast) in animals of different sexes [1]: no statistical difference
- Vd ([1]; cynomolgus monkey, in vivo, intravenous, 0.1 mg/kg, single, read-out: apparent volume of distribution Vd): 0.066 to 0.0681 L/kg
- clearance ([1]; cynomolgus monkey, in vivo, intravenous, 0.1 mg/kg, single, read-out: clearance CL): 21.4 to 22.3 mL/day/kg
- half-life ([1]; cynomolgus monkey, in vivo, intravenous, 0.1 mg/kg, single, read-out: elimination half-life t1/2): 50.7 to 51.5 h
- half-life ([1]; cynomolgus monkey, in vivo, sc, single subcutaneous injection, read-out: elimination half-life T1/2): 48.9 to 65.4 h
- Tmax ([1]; cynomolgus monkey, in vivo, sc, single subcutaneous injection, read-out: time to peak drug concentration Tmax): 13.3 to 18 h
- degradation in stressing test [2]: significant degradations
- polymer in influencing factor test [3]: polymer growth
